From the NIST ThermoML archive (doi:10.1016/j.jct.2014.01.006)
Numbers after ± are expanded uncertainties.

What was measured:
[1] = for molar entropy: Vacuum adiabatic calorimetry; for mass density: Vibrating tube method; for vapor or sublimation pressure: Ebulliometric method (Recirculating still)
[2] = Molar enthalpy of transition or fusion; conditions: Crystal; Adiabatic calorimetry
[3] = molar heat capacity at saturation pressure; conditions: Crystal, Vacuum adiabatic calorimetry

c1ccc(-c2cccc3ccccc23)cc1 [1-phenylnaphthalene]
[1]
Conditions	Glass transition temperature [°C]	Triple point temperature [K]	mass density [kg/m3]	molar entropy [J/K/mol]	vapor or sublimation pressure [kPa]
5 K, Crystal	–	–	–	0.1746 ± 0.017	–
10 K, Crystal	–	–	–	1.372 ± 0.025	–
20 K, Crystal	–	–	–	7.849 ± 0.083	–
30 K, Crystal	–	–	–	17.67 ± 0.16	–
40 K, Crystal	–	–	–	28.64 ± 0.12	–
50 K, Crystal	–	–	–	39.72 ± 0.14	–
60 K, Crystal	–	–	–	50.49 ± 0.17	–
70 K, Crystal	–	–	–	60.84 ± 0.19	–
80 K, Crystal	–	–	–	70.76 ± 0.22	–
90 K, Crystal	–	–	–	80.33 ± 0.32	–
100 K, Crystal	–	–	–	89.56 ± 0.34	–
120 K, Crystal	–	–	–	107.24 ± 0.37	–
140 K, Crystal	–	–	–	124.19 ± 0.39	–
160 K, Crystal	–	–	–	140.69 ± 0.42	–
180 K, Crystal	–	–	–	156.93 ± 0.45	–
200 K, Crystal	–	–	–	173.03 ± 0.47	–
220 K, Crystal	–	–	–	189.11 ± 0.5	–
240 K, Crystal	–	–	–	205.23 ± 0.53	–
260 K, Crystal	–	–	–	221.4 ± 0.56	–
280 K, Crystal	–	–	–	237.64 ± 0.58	–
297.47 K, Crystal	–	–	–	251.92 ± 0.61	–
297.47 K, Liquid	–	–	–	304.2 ± 0.71	–
298.15 K, Liquid	–	–	–	304.91 ± 0.71	–
300 K, Liquid	–	–	–	306.83 ± 0.71	–
320 K, Liquid	–	–	–	327.32 ± 0.75	–
323.14 K, Liquid	–	–	1082.7 ± 1.1	–	–
340 K, Liquid	–	–	–	347.28 ± 0.78	–
348.13 K, Liquid	–	–	1064.6 ± 1.1	–	–
360 K, Liquid	–	–	–	366.78 ± 0.81	–
373.12 K, Liquid	–	–	1045.5 ± 1	–	–
375 K, Liquid	–	–	–	–	0.0218 ± 0.0077
380 K, Liquid	–	–	–	385.86 ± 0.85	–
385 K, Liquid	–	–	–	–	0.0404 ± 0.0077
395 K, Liquid	–	–	–	–	0.0732 ± 0.0078
400 K, Liquid	–	–	–	404.57 ± 0.88	–
405 K, Liquid	–	–	–	–	0.1265 ± 0.0078
415 K, Liquid	–	–	–	–	0.2126 ± 0.0078
420 K, Liquid	–	–	–	422.96 ± 0.91	–
423.11 K, Liquid	–	–	1006.3 ± 1	–	–
425.01 K, Liquid	–	–	–	–	0.3464 ± 0.0078
434.99 K, Liquid	–	–	–	–	0.549 ± 0.0078
440 K, Liquid	–	–	–	441.01 ± 0.95	–
445 K, Liquid	–	–	–	–	0.849 ± 0.0078
448.11 K, Liquid	–	–	986.7 ± 1	–	–
455 K, Liquid	–	–	–	–	1.283 ± 0.0079
460 K, Liquid	–	–	–	458.69 ± 0.98	–
465 K, Liquid	–	–	–	–	1.896 ± 0.008
466.36 K, Liquid	–	–	–	–	2 ± 0.0081
473.11 K, Liquid	–	–	967 ± 1	–	–
475 K, Liquid	–	–	–	–	2.747 ± 0.0082
480 K, Liquid	–	–	–	476.01 ± 1	3.281 ± 0.0084
485.69 K, Liquid	–	–	–	–	4.002 ± 0.0086
494.31 K, Liquid	–	–	–	–	5.336 ± 0.009
498.11 K, Liquid	–	–	945 ± 1	–	–
500 K, Liquid	–	–	–	493.05 ± 1	–
507.13 K, Liquid	–	–	–	–	8.005 ± 0.0097
516.73 K, Liquid	–	–	–	–	10.67 ± 0.011
520 K, Liquid	–	–	–	509.81 ± 1.1	–
523.11 K, Liquid	–	–	921.4 ± 0.9	–	–
524.52 K, Liquid	–	–	–	–	13.34 ± 0.012
532.53 K, Liquid	–	–	–	–	16.64 ± 0.013
539.27 K, Liquid	–	–	–	–	19.93 ± 0.015
540 K, Liquid	–	–	–	526.33 ± 1.1	–
548.1 K, Liquid	–	–	–	–	25.01 ± 0.017
548.11 K, Liquid	–	–	–	–	25.02 ± 0.016
557 K, Liquid	–	–	–	–	31.18 ± 0.019
560 K, Liquid	–	–	–	542.62 ± 1.1	–
565.96 K, Liquid	–	–	–	–	38.57 ± 0.023
574.94 K, Liquid	–	–	–	–	47.36 ± 0.026
580 K, Liquid	–	–	–	558.7 ± 1.2	–
584.02 K, Liquid	–	–	–	–	57.82 ± 0.03
593.13 K, Liquid	–	–	–	–	70.11 ± 0.035
600 K, Liquid	–	–	–	574.57 ± 1.2	–
602.33 K, Liquid	–	–	–	–	84.55 ± 0.041
611.56 K, Liquid	–	–	–	–	101.34 ± 0.05
620 K, Liquid	–	–	–	590.26 ± 1.2	–
620.85 K, Liquid	–	–	–	–	120.8 ± 0.05
630.2 K, Liquid	–	–	–	–	143.27 ± 0.06
640 K, Liquid	–	–	–	605.78 ± 1.2	–
650 K, Liquid	–	–	–	613.47 ± 1.3	–
Crystal, Adiabatic calorimetry	–	297.47 ± 0.039	–	–	–
Glass, Adiabatic calorimetry	-53 ± 1	–	–	–	–

Conditions	Molar enthalpy of transition or fusion [kJ/mol]
[2]	15.55 ± 0.017

[3]
Conditions	molar heat capacity [J/K/mol]
4.666 K	0.4324 ± 0.017
5 K	0.5238 ± 0.025
5.509 K	0.6901 ± 0.025
6.425 K	1.131 ± 0.042
7.372 K	1.671 ± 0.058
8.352 K	2.37 ± 0.075
9.357 K	3.243 ± 0.1
10 K	3.899 ± 0.042
10.42 K	4.348 ± 0.042
11.58 K	5.512 ± 0.05
12.87 K	7.134 ± 0.058
14.3 K	8.921 ± 0.075
15.89 K	11.19 ± 0.083
17.68 K	13.76 ± 0.1
19.66 K	16.7 ± 0.12
20 K	17.2 ± 0.12
21.86 K	20.01 ± 0.13
24.3 K	23.71 ± 0.15
26.97 K	27.69 ± 0.17
29.93 K	31.88 ± 0.18
30 K	31.97 ± 0.17
33.23 K	36.31 ± 0.091
36.92 K	40.94 ± 0.1
40 K	44.47 ± 0.11
41.05 K	45.63 ± 0.11
45.65 K	50.63 ± 0.12
50 K	54.82 ± 0.12
50.77 K	55.5 ± 0.12
56.48 K	60.59 ± 0.13
57.01 K	60.79 ± 0.13
